In patent US9365522B2, “Pyrazole amide derivative” (AMGEN INC., priority 2015, dated 2016):

target: T1, ligand binding domain of human ROR gamma (Homo sapiens, UniProt P51449); assay: ROR gamma reporter gene assay (GAL4-RORγ LBD luciferase, Dual-Glo); format: cell-based; details: HEK293T cells transfected with pM-ROR gamma, 8 concentrations 3.5 nM to 10.5 μM, 24 h incubation; read-out: result (pIC50, inhibition of RORγ transcriptional activity) (converted)
T1 construct: NM_001001523; expressed in transfected cells; host or cells: HEK293T
T1 sequence (P51449 247-497 isoform P51449-2): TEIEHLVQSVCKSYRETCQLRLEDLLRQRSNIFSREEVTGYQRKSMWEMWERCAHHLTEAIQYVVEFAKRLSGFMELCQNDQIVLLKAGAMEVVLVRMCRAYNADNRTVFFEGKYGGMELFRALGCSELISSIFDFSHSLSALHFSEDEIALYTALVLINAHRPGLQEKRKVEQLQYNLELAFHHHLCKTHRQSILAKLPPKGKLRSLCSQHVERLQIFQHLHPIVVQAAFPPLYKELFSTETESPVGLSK
Description: Luciferase reporter gene assay was used to assess inhibition of RORγ transcriptional activity.
ROR gamma expression vector was prepared by inserting the ligand binding domain of human ROR gamma (amino acid 247-497 of Genbank Accession NO. NM_001001523) adjacent to the yeast GAL4 transcription factor DNA binding domain in the expression vector pM (Clontech). The resulting expression vector pM-ROR gamma was used in transfection experiments together with the pGL4 luciferase reporter plasmid (Promega) containing five copies of the UAS GAL4 recognition site and pRL-CMV plasmids (Promega) containing the constitutive CMV promoter and the renilla luciferase.
For preparing transfection reagent/DNA mixture, 1 μg pM-ROR gamma, 1 μg pGL4 5×UAS, 625 pg pRL-CMV and 6.25 μL FuGENE™ HD transfection reagent (Promega) were mixed in 0.25 mL OPTI-MEM™ (Life technologies) at room temperature. At the same time, Negative control DNA mixture was prepared by using 1 μg pM empty vector instead of pM-ROR gamma plasmid. After a fifteen minute incubation, 0.25 mL of transfection reagent/DNA mixture was added to 1,000,000 of HEK293T cells (ATCC) in 5 mL of OPTI-MEM™ containing 10% Charcoal Stripped Fetal Bovine Serum.
Transfected cells were seeded onto 384 well plate (10 μL/well) and the 7.5 nL of test compounds were added to the wells in 8 concentrations ranging from 3.5 nM to 10.5 μM. The compounds were dissolved in 100% DMSO and the final concentration of DMSO in the assay was 0.075%.
After 24 h of incubation at 37° C., 5% CO2 in a cell culture incubator, the Dual-Glo™ Luciferase Assay System was used to detect activity according to the manufacturer's instructions (Promega, Cat. No.: E2920).
Data was plotted and pIC50 values were calculated using the XLfit program (ID Business Solutions Ltd.).

Structure (SMILES)	IC50 [pM]
CC1(C)CCC(N(CC(=O)c2c(Cl)cccc2Cl)C(=O)c2cnn([C@H]3CC[C@](C)(C(=O)O)CC3)c2C(F)(F)F)CC1 [Example 283, trans-4-(4-((2-(2,6-dichlorophenyl)-2-oxoethyl)-(4,4-dimethylcyclohexyl)carbamoyl)-5-(trifluoromethyl)pyrazol-1-yl)-1-methylcyclohexane-1-carboxylic acid]	9120
N[C@]1(C(=O)O)CC[C@H](n2ncc(C(=O)N(CC(=O)c3c(Cl)cncc3Cl)Cc3ccc(F)cc3)c2C(F)(F)F)CC1 [Example 117, cis-4-(4-((2-(3,5-dichloropyridin-4-yl)-2-oxoethyl)-((4-fluorophenyl)methyl)carbamoyl)-5-(trifluoromethyl)pyrazol-1-yl)-1-aminocyclohexane-1-carboxylic acid]	3.55e+06
CCC(C)(C)CN(CC(=O)c1c(Cl)cncc1Cl)C(=O)c1cnn([C@H]2CC[C@](C)(C(=O)O)CC2)c1C(F)(F)F [Example 286, trans-4-(4-((2-(3,5-dichioropyridin-4-yl)-2-oxoethyl)-(2,2-dimethylbutyl)carbamoyl)-5-(trifluoromethyl)pyrazol-1-yl)-1-methylcyclohexane-1-carboxylic acid]	9120
O=C(c1cnn([C@H]2CC[C@H](C(=O)O)CC2)c1C(F)(F)F)N(Cc1ccc(F)cc1)CC(O)c1c(Cl)cncc1Cl (stereo partly drawn) [Example 90, trans-4-(4-((2-(3,5-dichloropyridin-4-yl)-2-hydroxyethyl)(4-fluorobenzyl)carbamoyl)-5-(trifluoromethyl)-1H-pyrazol-1-yl)cyclohexanecarboxylic acid]	501000
O=C(CN(CC1(C(F)(F)F)CC1)C(=O)c1cnn([C@H]2CC[C@H](C(=O)O)CC2)c1C(F)(F)F)c1c(Cl)cncc1Cl [Example 150, trans-4-(4-((2-(3,5-dichloropyridin-4-yl)-2-oxoethyl)-((1-(trifluoromethyl)cyclopropyl)methyl)carbamoyl)-5-(trifluoromethyl)pyrazol-1-yl)cyclohexane-1-carboxylic acid]	53700
CC(C)(C)OCCN(CC(=O)c1c(Cl)cc(C(F)(F)F)cc1Cl)C(=O)c1cnn([C@H]2CC[C@H](C(=O)O)CC2)c1C(F)(F)F [Example 144, trans-4-(4-((2-(2,6-dichloro-4-(trifluoromethyl)phenyl)-2-oxoethyl)-(2-((2-methylpropan-2-yl)oxy)ethyl)carbamoyl)-5-(trifluoromethyl)pyrazol-1-yl)cyclohexane-1-carboxylic acid]	87100
COc1cccc(Cl)c1C(=O)CN(C(=O)c1cnn(C23CCC(C(=O)O)(CC2)CC3)c1C(F)(F)F)C1CCC(C)(C)CC1 [Example 243, 4-(4-((2-(2-chloro-6-methoxyphenyl)-2-oxoethyl)-(4,4-dimethylcyclohexyl)carbamoyl)-5-(trifluoromethyl)pyrazol-1-yl)bicyclo[2.2.2]octane-1-carboxylic acid]	55000
CC1(C)CCCC(N(CC(=O)c2c(Cl)cncc2Cl)C(=O)c2cnn([C@H]3CC[C@H](C(=O)O)CC3)c2C(F)(F)F)C1 (stereo partly drawn) [Example 205, trans-4-(4-((2-(3,5-dichloropyridin-4-yl)-2-oxoethyl)-(3,3-dimethylcyclohexyl)carbamoyl)-5-(trifluoromethyl)pyrazol-1-yl)cyclohexane-1-carboxylic acid]	138000
N#Cc1ccccc1CN(CC(=O)c1c(Cl)cncc1Cl)C(=O)c1cnn([C@H]2CC[C@H](C(=O)O)CC2)c1C(F)(F)F [Example 22, trans-4-(4-((2-cyanobenzyl)(2-(3,5-dichloropyridin-4-yl)-2-oxoethyl)carbamoyl)-5-(trifluoromethyl)-1H-pyrazol-1-yl)cyclohexanecarboxylic acid]	> 1e+07
Cc1cc(Cl)c(C(=O)CN(C(=O)c2cnn(C34CCC(C(=O)O)(CC3)CC4)c2C(F)(F)F)C2CCC(C)(C)CC2)c(Cl)c1 [Example 236, 4-(4-((2-(2,6-dichloro-4-methylphenyl)-2-oxoethyl)-(4,4-dimethylcyclohexyl)carbamoyl)-5-(trifluoromethyl)pyrazol-1-yl)bicyclo[2.2.2]octane-1-carboxylic acid]	10500
O=C(CN(Cc1ccc(F)cc1)C(=O)c1cnn([C@H]2CC[C@](F)(C(=O)O)CC2)c1C(F)(F)F)c1c(Cl)cncc1Cl [Example 81, cis-4-(4-((2-(3,5-dichloropyridin-4-yl)-2-oxoethyl)(4-fluorobenzyl)carbamoyl)-5-(trifluoromethyl)-1H-pyrazol-1-yl)-1-fluorocyclohexanecarboxylic acid]	93300
O=C(CN(Cc1cc(F)cc(F)c1)C(=O)c1cnn([C@H]2CC[C@H](C(=O)O)CC2)c1C(F)(F)F)c1cc(F)cc(F)c1 [Example 60, trans-4-(4-((3,5-difluorobenzyl)(2-(3,5-difluorophenyl)-2-oxoethyl)carbamoyl)-5-(trifluoromethyl)-1H-pyrazol-1-yl)cyclohexanecarboxylic acid]	> 1e+07

More lines, now with the values ahead:

IC50 [pM]	Structure (SMILES)
14800	O=C(CN(CC1(C(F)(F)F)CC1)C(=O)c1cnn(C23CCC(C(=O)O)(CC2)CC3)c1C(F)(F)F)c1c(Cl)cncc1Cl [Example 329, 4-(4-((2-(3,5-dichloropyridin-4-yl)-2-oxoethyl)-((1-(trifluoromethyl)cyclopropyl)methyl)carbamoyl)-5-(trifluoromethyl)pyrazol-1-yl)bicyclo[2.2.2]octane-1-carboxylic acid]
≥ 1.05e+07	CC(C)(C)CN(C[C@H](O)c1ncccc1Cl)C(=O)c1cnn([C@H]2CC[C@](C)(C(=O)O)CC2)c1C(F)(F)F (stereo in doubt) [Example 402, trans-4-(4-((2-(3-chloropyridin-2-yl)-2-hydroxyethyl)-(2,2-dimethylpropyl)carbamoyl)-5-(trifluoromethyl)pyrazol-1-yl)-1-methylcyclohexane-1-carboxylic acid]
30200	CC1(C)[C@@H]2C[C@H](N(CC(=O)c3c(Cl)cncc3Cl)C(=O)c3cnn([C@H]4CC[C@](C)(C(=O)O)CC4)c3Cl)C[C@@H]21 [Example 367, trans-4-(5-chloro-4-((2-(3,5-dichloropyridin-4-yl)-2-oxoethyl)((1R,3r,5S)-6,6-dimethylbicyclo[3.1.0]hexan-3-yl)carbamoyl)-1H-pyrazol-1-yl)-1-methylcyclohexanecarboxylic acid]
178000	Cc1[nH]c2cccc(Cl)c2c1CCN(CC(C)(C)C)C(=O)c1cnn([C@H]2CC[C@](C)(C(=O)O)CC2)c1C(F)(F)F [Example 360, trans-4-(4-(2-(4-chloro-2-methyl-1H-indol-3-yl)ethyl-(2,2-dimethylpropyl)carbamoyl)-5-(trifluoromethyl)pyrazol-1-yl)-1-methylcyclohexane-1-carboxylic acid]
> 1.05e+07	CC(C)(C)CN(CC(=O)c1c(Cl)cncc1Cl)C(=O)c1cnn([C@H]2CC[C@](C)(C(=O)O)CC2)c1C#N [Example 310, trans-4-(5-cyano-4-((2-(3,5-dichloropyridin-4-yl)-2-oxoethyl)-(2,2-dimethylpropyl)carbamoyl)pyrazol-1-yl)-1-methylcyclohexane-1-carboxylic acid]
776000	CC1(C)[C@@H]2C[C@H](N(CC(N)c3c(F)cccc3Cl)C(=O)c3cnn([C@H]4CC[C@](C)(C(=O)O)CC4)c3C(F)(F)F)C[C@@H]21 (stereo partly drawn) [Example 409, trans-4-(4-((2-amino-2-(2-chloro-6-fluorophenyl)ethyl)((1R,3r,5S)-6,6-dimethylbicyclo[3.1.0]hexan-3-yl)carbamoyl)-5-(trifluoromethyl)-1H-pyrazol-1-yl)-1-methylcyclohexanecarboxylic acid]
50100	CC(C)(C)CN(CC(=O)c1c(Cl)cccc1OC(F)F)C(=O)c1cnn([C@H]2CC[C@](C)(C(=O)O)CC2)c1C(F)(F)F [Example 406, trans-4-(4-((2-(2-chloro-6-(difluoromethoxy)phenyl)-2-oxoethyl)-(2,2-dimethylpropyl)carbamoyl)-5-(trifluoromethyl)pyrazol-1-yl)-1-methylcyclohexane-1-carboxylic acid]
